Values quoted from earlier work as cited in patent US20130171237A1, “ARIPIPRAZOLE COMPOSITIONS AND METHODS FOR ITS TRANSDERMAL DELIVERY” (priority 2010, published 2013).

solubility in water: practically insoluble in water
Compound: O=C1CCc2ccc(OCCCCN3CCN(c4cccc(Cl)c4Cl)CC3)cc2N1 [ARPZ, Aripiprazole]
